Experimental data as given in PubChem BioAssay AID248 (DTP/NCI, 2004).
Several values for one entry are separate records, joined by “and”; a condition that tells them apart may be missing. Equal entries are not always repeated. Toxic doses and inconclusive results are not listed.

Tested on: L1210 leukemia ip in BDF1 mice, survival T/C
Assay: NCI In Vivo Anticancer Drug Screen. Data for tumor model L1210 Leukemia (intraperitoneal) in B6D2F1 (BDF1) mice
Details: endpoint: mean survival time, higher = longer survival
Method in brief: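 In this screen, tumor-bearing mice given compound are compared to those given vehicle, and their survival values are reported as a treated-to-control quotient.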

[1] = dose: 100.0 mg/kg/injection, schedule: Q01DX009 (ip), vehicle: saline with Tween-80
[2] = dose: 100.0 mg/kg/injection, schedule: Q04DX003 (ip), vehicle: saline with Tween-80
[3] = dose: 200.0 mg/kg/injection, schedule: Q01DX009 (ip), vehicle: saline with Tween-80
[4] = dose: 200.0 mg/kg/injection, schedule: Q04DX003 (ip), vehicle: saline with Tween-80
[5] = dose: 400.0 mg/kg/injection, schedule: Q01DX009 (ip), vehicle: saline with Tween-80
[6] = dose: 400.0 mg/kg/injection, schedule: Q04DX003 (ip), vehicle: saline with Tween-80
[7] = dose: 100.0 mg/kg/injection, schedule: Q04DX003 (ip), vehicle: Klucel (hydroxypropylcellulose) (HPC)
[8] = dose: 200.0 mg/kg/injection, schedule: Q04DX003 (ip), vehicle: Klucel (hydroxypropylcellulose) (HPC)
[9] = dose: 400.0 mg/kg/injection, schedule: Q04DX003 (ip), vehicle: Klucel (hydroxypropylcellulose) (HPC)
[10] = dose: 100.0 mg/kg/injection, schedule: Q04DX002 (ip), vehicle: Klucel (hydroxypropylcellulose) (HPC)
[11] = dose: 200.0 mg/kg/injection, schedule: Q04DX002 (ip), vehicle: Klucel (hydroxypropylcellulose) (HPC)
[12] = dose: 400.0 mg/kg/injection, schedule: Q04DX002 (ip), vehicle: Klucel (hydroxypropylcellulose) (HPC)
[13] = dose: 100.0 mg/kg/injection, schedule: Q01DX009 (ip), vehicle: Klucel (hydroxypropylcellulose) (HPC)
[14] = dose: 200.0 mg/kg/injection, schedule: Q01DX009 (ip), vehicle: Klucel (hydroxypropylcellulose) (HPC)
[15] = dose: 100.0 mg/kg/injection, schedule: Q04DX002 (ip), vehicle: saline with Tween-80
[16] = dose: 200.0 mg/kg/injection, schedule: Q04DX002 (ip), vehicle: saline with Tween-80
[17] = dose: 400.0 mg/kg/injection, schedule: Q04DX002 (ip), vehicle: saline with Tween-80
[18] = dose: 400.0 mg/kg/injection, schedule: Q01DX009 (ip), vehicle: Klucel (hydroxypropylcellulose) (HPC)

For `CCOC(=O)Nc1cc(Cl)cc(NC(=O)OCC)n1`, the T/C (dose: 100.0 mg/kg/injection, schedule: Q01DX001 (ip), vehicle: other) was 94 % of control, the T/C [1] was 96 % of control and the T/C [2] was 107 % of control. For the same compound, the T/C (dose: 200.0 mg/kg/injection, schedule: Q01DX001 (ip), vehicle: other) was 102 % of control, the T/C [3] was 106 % of control and the T/C [4] was 100 % of control. The T/C (dose: 400.0 mg/kg/injection, schedule: Q01DX001 (ip), vehicle: other) was 96 % of control, the T/C [5] was 96 % of control and the T/C [6] was 108 % of control.
With `NCC(=O)c1ccc(OC(=O)c2ccccc2)cc1` the T/C [1] was 92 % of control, the T/C [2] was 95 % of control and the T/C [3] was 94 % of control. The T/C [4] was 95 % of control, the T/C [5] was 103 % of control and the T/C [6] was 96 % of control.
For `N#CC(c1ccccc1)N1CCCCC1` (stereo not given), the T/C [7] was 101 % of control, the T/C [8] was 107 % of control and the T/C [9] was 91 % of control.
`CC(C)=CCC(/C=N/N=C(N)N)C(C)C` (stereo not given) was tested, and the T/C (dose: 3.0 mg/kg/injection, schedule: Q01DX Z (ip), vehicle: saline) was 96 % of control, the T/C (dose: 7.0 mg/kg/injection, schedule: Q01DX Z (ip), vehicle: saline) was 105 % of control and the T/C (dose: 15.0 mg/kg/injection, schedule: Q01DX Z (ip), vehicle: saline) was 91 % of control. For the same compound, the T/C (dose: 15.0 mg/kg/injection, schedule: Q01DX Z (oral), vehicle: saline) was 104 % of control, the T/C (dose: 30.0 mg/kg/injection, schedule: Q01DX Z (ip), vehicle: saline) was 94 % of control and the T/C (dose: 30.0 mg/kg/injection, schedule: Q01DX Z (oral), vehicle: saline) was 101 % of control. For the same compound, the T/C (dose: 60.0 mg/kg/injection, schedule: Q01DX Z (oral), vehicle: saline) was 87 % of control.
In the case of `O=C1OC(Cc2ccccc2)(c2ccccc2)c2ccccc21` (stereo not given), the T/C (dose: 50.0 mg/kg/injection, schedule: Q01DX009 (ip), vehicle: saline with Tween-80) was 90 % of control, the T/C [1] was 88 % of control and the T/C [3] was 89 % of control.
`NC(=O)CC(NC(=O)OCc1ccccc1)c1nn[nH]n1` (stereo not given) was tested, and the T/C [1] was 104 % of control, the T/C [2] was 91 % of control and the T/C [3] was 106 % of control. The T/C [4] was 102 % of control, the T/C [5] was 98 % of control and the T/C [6] was 91 % of control.
With `COc1ccc(C(O)c2cc3ccccc3n2S(=O)(=O)c2ccccc2)cc1` (stereo not given) the T/C [10] was 95 % of control, the T/C [11] was 106 % of control and the T/C [12] was 98 % of control.
For `FC(F)(F)c1cccc(-n2nncc2-c2ccccc2)c1`, the T/C [10] was 97 % of control, the T/C [11] was 101 % of control and the T/C [12] was 97 % of control.
For `O=C(Nc1ccccc1-c1ccc([N+](=O)[O-])cc1)c1cccc2ccccc12`, the T/C [4] was 87 % of control and the T/C [6] was 90 % of control.
`COc1ccc(COC(=O)N=[N+]=[N-])cc1` was tested, and the T/C (dose: 12.5 mg/kg/injection, schedule: Q04DX003 (ip), vehicle: Klucel (hydroxypropylcellulose) (HPC)) was 112 % of control, the T/C (dose: 25.0 mg/kg/injection, schedule: Q01DX009 (ip), vehicle: Klucel (hydroxypropylcellulose) (HPC)) was 98 % of control and the T/C (dose: 25.0 mg/kg/injection, schedule: Q04DX003 (ip), vehicle: Klucel (hydroxypropylcellulose) (HPC)) was 110 % of control. For the same compound, the T/C (dose: 50.0 mg/kg/injection, schedule: Q01DX009 (ip), vehicle: Klucel (hydroxypropylcellulose) (HPC)) was 91 % of control, the T/C (dose: 50.0 mg/kg/injection, schedule: Q04DX003 (ip), vehicle: Klucel (hydroxypropylcellulose) (HPC)) was 105 % of control and the T/C (dose: 100.0 mg/kg/injection, schedule: Q01DX001 (ip), vehicle: Klucel (hydroxypropylcellulose) (HPC)) was 98 % of control. The T/C [7] was 105 % of control.
In the case of `CCN(CC)N=Nc1ccccc1-c1nc(N)nc(N)n1`, the T/C [7] was 95 % of control and the T/C [8] was 108 % of control.
In the case of `ClCCNCc1ccc(Nc2ccnc3cc(Cl)ccc23)cc1`, the T/C (dose: 75.0 mg/kg/injection, schedule: Q01DX001 (ip), vehicle: carboxymethylcellulose (CMC)) was 103 % of control.
For `COc1ccc(-c2cc(=O)c3c(O)c(OC)c(O)cc3o2)cc1`, the T/C (dose: 20.0 mg/kg/injection, schedule: Q01DX Z (ip), vehicle: saline) was 101 % of control, the T/C (dose: 40.0 mg/kg/injection, schedule: Q01DX Z (ip), vehicle: saline) was 108 % of control and the T/C (dose: 80.0 mg/kg/injection, schedule: Q01DX Z (ip), vehicle: saline) was 95 % of control.
`O=C(COc1cc(Cl)c(Cl)cc1Cl)OC(=O)COc1cc(Cl)c(Cl)cc1Cl` was tested, and the T/C [10] was 107 % of control and the T/C [11] was 96 % of control.
`Nc1nc(-c2ccccc2)nc2nc3[nH]c(=O)[nH]c(=O)c3nc12` was tested, and the T/C [10] was 94 % of control, the T/C [11] was 102 % of control and the T/C [12] was 98 % of control.
With `CC(=O)OC1OC(CS[As](C)C)C(OC(C)=O)C(OC(C)=O)C1OC(C)=O` (stereo not given) the T/C [7] was 94 % of control and the T/C [8] was 105 % of control.
With `CN(CCO)C1=C(N2CC2)C(=O)C(N(C)CCO)=C(N2CC2)C1=O` the T/C (dose: 0.12 mg/kg/injection, schedule: Q01DX001 (ip), vehicle: saline) was 103 % of control, the T/C (dose: 0.12 mg/kg/injection, schedule: Q01DX009 (ip), vehicle: saline) was 104 % of control and 105 % of control and the T/C (dose: 0.24 mg/kg/injection, schedule: Q04DX003 (ip), vehicle: saline) was 119 % of control. The T/C (dose: 0.25 mg/kg/injection, schedule: Q01DX001 (ip), vehicle: saline) was 100 % of control, the T/C (dose: 0.25 mg/kg/injection, schedule: Q01DX009 (ip), vehicle: saline) was 121 % of control and the T/C (dose: 0.5 mg/kg/injection, schedule: Q01DX001 (ip), vehicle: saline) was 112 % of control. The T/C (dose: 0.55 mg/kg/injection, schedule: Q04DX003 (ip), vehicle: saline) was 122 % of control, the T/C (dose: 1.0 mg/kg/injection, schedule: Q01DX009 (ip), vehicle: saline) was 184 % of control and 214 % of control and the T/C (dose: 1.5 mg/kg/injection, schedule: Q04DX003 (ip), vehicle: saline) was 111 % of control. For the same compound, the T/C (dose: 3.0 mg/kg/injection, schedule: Q04DX003 (ip), vehicle: saline) was 97 % of control.
In the case of `O=C(Nc1ccccn1)Nc1ccccn1`, the T/C [13] was 104 % of control, the T/C [7] was 98 % of control and the T/C [14] was 104 % of control. The T/C [8] was 87 % of control and the T/C [9] was 106 % of control.
With `O=S(=O)(O)Nc1cccc(Cl)c1` the T/C [15] was 100 % of control, the T/C [16] was 111 % of control and the T/C [17] was 88 % of control.
In the case of `CCOC(=O)c1c(/N=C/c2cc(Br)cc(Br)c2O)sc2c1CCCC2`, the T/C [15] was 91 % of control, the T/C [16] was 102 % of control and the T/C [17] was 105 % of control.
In the case of `Cc1c(C(=O)Nc2ccc(C3=NCCN3)cc2)cccc1C(=O)Nc1ccc(C2=NCCN2)cc1`, the T/C (dose: 42.0 mg/kg/injection, schedule: Q01DX Z (ip), vehicle: carboxymethylcellulose (CMC)) was 104 % of control and the T/C (dose: 85.0 mg/kg/injection, schedule: Q01DX Z (ip), vehicle: carboxymethylcellulose (CMC)) was 104 % of control.
`O=C1CCCCC1c1cccc2ccccc12` (stereo not given) was tested, and the T/C (dose: 100.0 mg/kg/injection, schedule: Q01DX001 (sc), vehicle: olive oil, sesame oil, peanut oil) was 97 % of control, the T/C (dose: 200.0 mg/kg/injection, schedule: Q01DX001 (sc), vehicle: olive oil, sesame oil, peanut oil) was 104 % of control and the T/C (dose: 400.0 mg/kg/injection, schedule: Q01DX001 (sc), vehicle: olive oil, sesame oil, peanut oil) was 106 % of control.
`O=S(O)O` was tested, and the T/C (dose: 100.0 mg/kg/injection, schedule: Q01DX001 (ip), vehicle: saline) was 95 % of control, the T/C (dose: 100.0 mg/kg/injection, schedule: Q01DX009 (ip), vehicle: saline) was 103 % of control and the T/C (dose: 200.0 mg/kg/injection, schedule: Q01DX001 (ip), vehicle: saline) was 97 % of control. For the same compound, the T/C (dose: 200.0 mg/kg/injection, schedule: Q01DX009 (ip), vehicle: saline) was 97 % of control, the T/C (dose: 400.0 mg/kg/injection, schedule: Q01DX001 (ip), vehicle: saline) was 103 % of control and the T/C (dose: 400.0 mg/kg/injection, schedule: Q01DX009 (ip), vehicle: saline) was 100 % of control.
For `Cc1ccc(C)c(OC(=O)NC2CCCCC2)c1`, the T/C [13] was 93 % of control, the T/C [7] was 101 % of control and the T/C [14] was 92 % of control. The T/C [8] was 104 % of control, the T/C [18] was 95 % of control and the T/C [9] was 98 % of control.
For `Cc1cc(Cl)ccc1NS(=O)(=O)c1ccccc1`, the T/C [13] was 107 % of control, the T/C [7] was 98 % of control and the T/C [14] was 98 % of control. The T/C [8] was 103 % of control, the T/C [18] was 96 % of control and the T/C [9] was 97 % of control.
For `COC(=O)C(O)C(O)C(O)C(O)C(=O)OC` (stereo not given), the T/C (dose: 50.0 mg/kg/injection, schedule: Q04DX002 (ip), vehicle: saline with Tween-80) was 101 % of control, the T/C [15] was 96 % of control and the T/C [16] was 90 % of control. For the same compound, the T/C [17] was 93 % of control.
